# According to patent US12281122B1, “PI3K inhibitors” (Cogent Biosciences, Inc., priority 2023, dated 2025):
# What was measured:
# [1] = test system: T47D (PI3Kα-H1047R) cell line; experiment: HTRF phospho-AKT(S473) cell assay in T47D cells; assay type: cell-based, human; settings: Homo sapiens, 2 hours compound incubation
# Method in brief: (§1)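 T47D: RPMI + 10% FBS + 0.2 units/mL insulin, top 5 μM. SKBR3: McCoy's 5A + 10% FBS, top 10 μM, 70 ng/ml PDGF-BB last 15 min. Both: 12-pt 1:3, 2 h, 37° C, max 0.5% DMSO; HTRF pAKT(S473); IC50.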
# [2] = test system: SKBR3 (PI3Kα-Wild Type) cell line; experiment: HTRF phospho-AKT(S473) cell assay in SKBR3 cells; assay type: cell-based, human; settings: Homo sapiens, SK-BR-3, 2 hours compound incubation, PDGF-BB stimulated
# Method in brief: as §1
# [3] = T47D (PI3Kα-H1047R) cells, HTRF phospho-AKT(S473)
# [4] = SKBR3 (PI3Kα-Wild Type) cells, HTRF phospho-AKT(S473)
# [5] = HTRF phospho-AKT(S473), T47D (PI3Kα-H1047R) cells
# [6] = HTRF phospho-AKT(S473), SKBR3 (PI3Kα-Wild Type) cells
"IC50 [1, 3]","IC50 [2, 4]","IC50 [1, 5]","IC50 [2, 6]",Compound,also measured
–,–,250 to 500 nM,≥ 5000 nM,"Cc1cc([C@@H](C)Nc2ccc(Cl)nc2C(=O)NS(C)(=O)=O)c2nc(N3CC[C@H](Oc4ccc(F)cn4)C3)n(C)c(=O)c2c1 [Compound 513, 6-chloro-3-(((R)-1-(2-((S)-3-((5-fluoropyridin-2-yl)oxy)pyrrolidin-1-yl)-3,6-dimethyl-4-oxo-3,4-dihydroquinazolin-8-yl)ethyl)amino)-N-(methylsulfonyl) picolinamide]",–
–,–,< 250 nM,1000 to 5000 nM,"Cc1cnc(C2CCN(c3nc4c([C@@H](C)Nc5ccc(Cl)nc5C(=O)NS(C)(=O)=O)cc(Cl)cc4c(=O)n3C)CC2)cn1 [Compound 442, (R)-6-chloro-3-((1-(6-chloro-3-methyl-2-(4-(5-methylpyrazin-2-yl)piperidin-1-yl)-4-oxo-3,4-dihydroquinazolin-8-yl)ethyl)amino)-N-(methylsulfonyl) picolinamide]",–
–,–,< 250 nM,1000 to 5000 nM,"Cc1cc([C@@H](C)Nc2ccc(Cl)nc2C(=O)NS(C)(=O)=O)c2nc(N3CCC(n4ncnc4C)CC3)n(C)c(=O)c2c1 [Compound 549, (R)-6-chloro-3-((1-(3,6-dimethyl-2-(4-(5-methyl-1H-1,2,4-triazol-1-yl)piperidin-1-yl)-4-oxo-3,4-dihydroquinazolin-8-yl)ethyl)amino)-N-(methylsulfonyl) picolinamide]",–
< 250 nM,1000 to 5000 nM,–,–,"Cc1cc([C@@H](C)Nc2ccc(Cl)nc2C(=O)NS(C)(=O)=O)c2nc(N3CCC(c4c(C)nn(C)c4C)CC3)n(C)c(=O)c2c1 [Compound 226, (R)-6-chloro-3-((1-(3,6-dimethyl-4-oxo-2-(4-(1,3,5-trimethyl-1H-pyrazol-4-yl)piperidin-1-yl)-3,4-dihydroquinazolin-8-yl)ethyl)amino)-N-(methylsulfonyl) picolinamide]",–
< 250 nM,1000 to 5000 nM,–,–,"Cc1cc([C@@H](C)Nc2ccc(Cl)nc2C(=O)NS(C)(=O)=O)c2nc(N3CCN(c4ccccc4)CC3)n(C)c(=O)c2c1 [Compound 183, (R)-6-chloro-3-((1-(3,6-dimethyl-4-oxo-2-(4-phenylpiperazin-1-yl)-3,4-dihydroquinazolin-8-yl)ethyl)amino)-N-(methylsulfonyl) picolinamide]",–
–,–,< 250 nM,≥ 5000 nM,"Cc1cc([C@@H](C)Nc2ccc(Cl)nc2C(=O)NS(C)(=O)=O)c2nc(N3CCC[C@H](c4cnccn4)C3)n(C)c(=O)c2c1 (relative stereo) [Compound 619, 6-chloro-3-(((R)-1-(3,6-dimethyl-4-oxo-2-((R*)-3-(pyrazin-2-yl)piperidin-1-yl)-3,4-dihydroquinazolin-8-yl)ethyl)amino)-N-(methylsulfonyl) picolinamide]",–
–,–,250 to 500 nM,≥ 5000 nM,"Cc1cc([C@@H](C)Nc2ccc(Cl)nc2C(=O)NS(C)(=O)=O)c2nc(N3CCC(C4=NN(C)C(=O)C4(F)F)CC3)n(C)c(=O)c2c1 [Compound 561, (R)-6-chloro-3-((1-(2-(4-(4,4-difluoro-1-methyl-5-oxo-4,5-dihydro-1H-pyrazol-3-yl)piperidin-1-yl)-3,6-dimethyl-4-oxo-3,4-dihydroquinazolin-8-yl)ethyl)amino)-N-(methylsulfonyl) picolinamide]",–
–,–,< 250 nM,1000 to 5000 nM,"Cc1cc([C@@H](C)Nc2ccc(Cl)nc2C(=O)NS(C)(=O)=O)c2nc(N3CCN(c4ncc(C#N)cn4)CC3)n(C)c(=O)c2c1 [Compound 531, (R)-6-chloro-3-((1-(2-(4-(5-cyanopyrimidin-2-yl)piperazin-1-yl)-3,6-dimethyl-4-oxo-3,4-dihydroquinazolin-8-yl)ethyl)amino)-N-(methylsulfonyl) picolinamide]",–
< 250 nM,1000 to 5000 nM,–,–,"Cc1cc([C@@H](C)Nc2ccc(Cl)nc2C(=O)NS(C)(=O)=O)c2nc(-c3ccc(-c4cnn(C)c4)cn3)n(C)c(=O)c2c1 [Compound 285, (R)-6-chloro-3-((1-(3,6-dimethyl-2-(5-(1-methyl-1H-pyrazol-4-yl)pyridin-2-yl)-4-oxo-3,4-dihydroquinazolin-8-yl)ethyl)amino)-N-(methylsulfonyl) picolinamide]",–
< 250 nM,1000 to 5000 nM,–,–,"Cc1cc([C@@H](C)Nc2ccc(Cl)nc2C(=O)NS(C)(=O)=O)c2nc(N3CCC(n4cc(-c5cccnc5)cn4)CC3)n(C)c(=O)c2c1 [Compound 234, (R)-6-chloro-3-((1-(3,6-dimethyl-4-oxo-2-(4-(4-(pyridin-3-yl)-1H-pyrazol-1-yl)piperidin-1-yl)-3,4-dihydroquinazolin-8-yl)ethyl)amino)-N-(methylsulfonyl) picolinamide]",–
–,–,250 to 500 nM,1000 to 5000 nM,"Cc1cc([C@@H](C)Nc2ccc(Cl)nc2C(=O)NS(C)(=O)=O)c2nc(N3CCN(c4ccc(F)cn4)CC3)n(C)c(=O)c2c1 [Compound 574, (R)-6-chloro-3-((1-(2-(4-(5-fluoropyridin-2-yl)piperazin-1-yl)-3,6-dimethyl-4-oxo-3,4-dihydroquinazolin-8-yl)ethyl)amino)-N-(methylsulfonyl) picolinamide]",–

# Second part, the compound before the results:
Compound,"IC50 [1, 3]","IC50 [2, 4]","IC50 [1, 5]","IC50 [2, 6]",also measured
"Cc1cc([C@@H](C)Nc2ccc(Cl)nc2C(=O)NS(C)(=O)=O)c2nc(N3C[C@H]4C[C@@H](c5cc[nH]n5)[C@@H]3C4)n(C)c(=O)c2c1 (single isomer, unassigned) [Compound 346, 3-(((R)-1-(2-((1S,4S,6R*)-6-(1H-pyrazol-3-yl)-2-azabicyclo[2.2.1]heptan-2-yl)-3,6-dimethyl-4-oxo-3,4-dihydroquinazolin-8-yl)ethyl)amino)-6-chloro-N-(methylsulfonyl) picolinamide]",250 to 500 nM,≥ 5000 nM,–,–,–
Cc1cc([C@@H](C)Nc2ccc(Cl)nc2C(=O)NS(C)(=O)=O)c2nc(-c3ccc(N4CCN(C)CC4)nc3)n(C)c(=O)c2c1 [Compound 251],< 250 nM,1000 to 5000 nM,–,–,–
"Cc1cc([C@@H](C)Nc2ccc(Cl)nc2C(=O)NS(C)(=O)=O)c2nc(C#Cc3cnn(C)c3)n(C)c(=O)c2c1 [Compound 845, (R)-6-chloro-3-((1-(3,6-dimethyl-2-((1-methyl-1H-pyrazol-4-yl)ethynyl)-4-oxo-3,4-dihydroquinazolin-8-yl)ethyl)amino)-N-(methylsulfonyl) picolinamide]",–,–,–,–,"IC50 ([1]; T47D (PI3Kα-H1047R) cell line, phospho-AKT(S473) HTRF): 500 to 1000 nM; IC50 ([2]; SKBR3 (PI3Kα-Wild Type) cell line, phospho-AKT(S473) HTRF): ≥ 5000 nM"
"Cc1cc([C@@H](C)Nc2ccc(Cl)nc2C(=O)NS(C)(=O)=O)c2nc(N3Cc4cn(CC(F)(F)F)nc4C3)n(C3CC3)c(=O)c2c1 [Compound 735, (R)-6-chloro-3-((1-(3-cyclopropyl-6-methyl-4-oxo-2-(2-(2,2,2-trifluoroethyl)-2,6-dihydropyrrolo[3,4-c]pyrazol-5(4H)-yl)-3,4-dihydroquinazolin-8-yl)ethyl)amino)-N-(methylsulfonyl) picolinamide]",–,–,250 to 500 nM,1000 to 5000 nM,–
"Cc1cc([C@@H](C)Nc2ccc(Cl)nc2C(=O)NS(C)(=O)=O)c2nc(N3C[C@@H]4[C@H](C3)[C@H]4n3cc(C(F)(F)F)cn3)n(C)c(=O)c2c1 [Compound 741, 6-chloro-3-(((R)-1-(3,6-dimethyl-4-oxo-2-((1R,5S,6S)-6-(4-(trifluoromethyl)-1H-pyrazol-1-yl)-3-azabicyclo[3.1.0]hexan-3-yl)-3,4-dihydroquinazolin-8-yl)ethyl)amino)-N-(methylsulfonyl) picolinamide]",–,–,500 to 1000 nM,≥ 5000 nM,–
"Cc1cc([C@@H](C)Nc2ccc(Cl)nc2C(=O)NS(C)(=O)=O)c2nc(-c3ccc(-c4cn(C)cn4)cc3)n(C)c(=O)c2c1 [Compound 802, (R)-6-chloro-3-((1-(3,6-dimethyl-2-(4-(1-methyl-1H-imidazol-4-yl)phenyl)-4-oxo-3,4-dihydroquinazolin-8-yl)ethyl)amino)-N-(methylsulfonyl) picolinamide]",–,–,< 250 nM,1000 to 5000 nM,–
"Cc1cc([C@@H](C)Nc2ccc(Cl)nc2C(=O)NS(C)(=O)=O)c2nc(-c3ccc4nn(CC(F)(F)F)cc4c3)n(C)c(=O)c2c1 [Compound 784, (R)-6-chloro-3-((1-(3,6-dimethyl-4-oxo-2-(2-(2,2,2-trifluoroethyl)-2H-indazol-5-yl)-3,4-dihydroquinazolin-8-yl)ethyl)amino)-N-(methylsulfonyl) picolinamide]",–,–,< 250 nM,1000 to 5000 nM,–
"Cc1cc([C@@H](C)Nc2ccc(Cl)nc2C(=O)NS(C)(=O)=O)c2nc(N3C[C@@H]4C[C@H](c5cc[nH]n5)[C@H]3C4)n(C)c(=O)c2c1 (relative stereo) [Compound 347, 3-(((R)-1-(2-((1R,4R,6R*)-6-(1H-pyrazol-3-yl)-2-azabicyclo[2.2.1]heptan-2-yl)-3,6-dimethyl-4-oxo-3,4-dihydroquinazolin-8-yl)ethyl)amino)-6-chloro-N-(methylsulfonyl) picolinamide]",250 to 500 nM,≥ 5000 nM,–,–,–
"CC(=O)N1CCN(c2cc(F)c(-c3nc4c([C@@H](C)Nc5ccc(Cl)nc5C(=O)NS(C)(=O)=O)cc(C)cc4c(=O)n3C)cc2F)CC1 [Compound 800, (R)-3-((1-(2-(4-(4-acetylpiperazin-1-yl)-2,5-difluorophenyl)-3,6-dimethyl-4-oxo-3,4-dihydroquinazolin-8-yl)ethyl)amino)-6-chloro-N-(methylsulfonyl) picolinamide]",–,–,< 250 nM,1000 to 5000 nM,–
